The numbers were not newly measured in patent publication US20120010144A1, “Peg-albumin composition having at least one protected thiol region as a platform for medications” (priority 2009, published 2012), which cites them from elsewhere.

For the data set the following is noted: soluble in water (hydrophilic) or in lipid (hydrophobic).
Consider `Cc1c(C)c2c(c(C)c1O)CC[C@@](C)(CCC[C@H](C)CCC[C@H](C)CCCC(C)C)O2` [A-Tocopherol], for which the Solubility result is reported as “Lipid”. For `N[C@@H](CCC(=O)N[C@@H](CS)C(=O)NCC(=O)O)C(=O)O` [Glutathione], the Solubility entry is “Water”.

`COc1c(O)c(C)c(C/C=C(\C)CC/C=C(\C)CC/C=C(\C)CC/C=C(\C)CC/C=C(\C)CC/C=C(\C)CC/C=C(\C)CC/C=C(\C)CC/C=C(\C)CCC=C(C)C)c(O)c1OC` [Ubiquinol]: the Solubility entry is listed as “Lipid”. Consider `O=c1[nH]c(=O)c2[nH]c(=O)[nH]c2[nH]1` [Uric Acid], for which the Solubility entry was “Water”. Regarding Carotenes, the Solubility result was “Lipid”.
